Data published in US20030130174A1, “Glycosulfopeptide inhibitors of leukocyte rolling and methods of use thereof” (priority 2001, published 2003).
Where a SMILES comes first, the peptide text is derived from it. [ ]: non-standard residue; d: D form. The star is where a group is joined. X1 = CC(=O)N[C@@H]1[C@@H](O[C@@H]2O[C@H](CO)[C@H](O)[C@H](O)[C@H]2O)[C@@H](O)[C@@H](CO[C@@H]2O[C@H](CO)[C@@H](O[C@@H]3O[C@H](CO)[C@H](O)[C@H](O[C@]4(C(=O)O)C[C@H](O)[C@@H](NC(C)=O)[C@H]([C@H](O)[C@H](O)CO)O4)[C@H]3O)[C@H](O[C@@H]3O[C@@H](C)[C@@H](O)[C@@H](O)[C@@H]3O)[C@H]2NC(C)=O)O[C@@H]1*; sY = N[C@@H](Cc1ccc(OS(=O)(=O)O)cc1)C(=O)O

Conditions: mouse, in vivo
Protocol: Microscopic observations were made using an upright microscope (NIKON ECLIPSE E600-FN, Nikon UK Ltd, UK) equipped with a water immersion objective (40×/0.80 W). Images were recorded using a CCD camera (DAGE MTI DC-330, DAGE MTI Inc, Michigan City, Ind.) onto sVHS video-cassettes. Venules (20-40 μM diameter) were selected and typically observed for the entire experimental period. Centre-line blood flow velocity (VCL) in was measured in vessels of interest using a commercially available velocimeter (CIRCUSOFT, Hockessin, Del.). Vessels with VCL between 1 and 5 mm/s were selected for these studies.
Control leukocyte rolling was recorded exactly 30 min after exposure of the cremaster muscle for intravital microscopy since leukocyte rolling at this time is almost exclusively P-selectin-dependent . GSPs were injected at 31 min and their effects monitored for 10 min. […] Blood flow velocities and circulating leukocyte concentrations were measured at key times (before and after treatments) during experiments.

CC(=O)N[C@H]1[C@H](OC[C@H]2O[C@H](O[C@H](C)[C@H](NC(=O)[C@H](CCC(=O)O)NC(=O)[C@@H]3CCCN3C(=O)[C@H](CC(C)C)NC(=O)[C@H](Cc3ccccc3)NC(=O)[C@H](CC(=O)O)NC(=O)[C@H](Cc3ccc(OS(=O)(=O)O)cc3)NC(=O)[C@H](CC(=O)O)NC(=O)[C@H](CC(C)C)NC(=O)[C@H](Cc3ccc(OS(=O)(=O)O)cc3)NC(=O)[C@H](CCC(=O)O)NC(=O)[C@H](Cc3ccc(OS(=O)(=O)O)cc3)NC(=O)[C@@H](N)CCC(=O)O)C(=O)N[C@@H](CCC(=O)O)C(=O)N3CCC[C@H]3C(=O)N3CCC[C@H]3C(=O)N[C@@H](CCC(=O)O)C(=O)N[C@@H](CS)C(=O)O)[C@H](NC(C)=O)[C@@H](O[C@@H]3O[C@H](CO)[C@H](O)[C@H](O)[C@H]3O)[C@H]2O)O[C@H](CO)[C@@H](O[C@@H]2O[C@H](CO)[C@H](O)[C@H](O[C@]3(C(=O)O)C[C@H](O)[C@@H](NC(C)=O)[C@H]([C@H](O)[C@H](O)CO)O3)[C@H]2O)[C@@H]1O[C@@H]1O[C@@H](C)[C@@H](O)[C@@H](O)[C@@H]1O [2-GSP-6] (H-E[sY]E[sY]LD[sY]DFLPET(X1)EPPEC-OH)
Systemic leukocyte counts following treatment: increased slightly
